Holding throughout (type): cell-based
Test [1] concerns the target T1, 320 non-olfactory GPCRs (Homo sapiens, UniProt P51677).
T1 construct: expressed in transfected cells; host or cells: HTLA cells

For test [2], the target named is T2, 320 non-olfactory GPCRs (Homo sapiens, UniProt O00421).
T2 construct: expressed in transfected cells; host or cells: HTLA cells

Test [3] concerns the target T3, 320 non-olfactory GPCRs (Homo sapiens, UniProt P43116).
T3 construct: expressed in transfected cells; host or cells: HTLA cells
As to conditions: receptor PTGER2; replicate values, Fig_4g.

For test [4], the target named is 320 non-olfactory GPCRs (Homo sapiens, UniProt P25090).
320 non-olfactory GPCRs (Homo sapiens, UniProt P25090), sequence (P25090 whole entry): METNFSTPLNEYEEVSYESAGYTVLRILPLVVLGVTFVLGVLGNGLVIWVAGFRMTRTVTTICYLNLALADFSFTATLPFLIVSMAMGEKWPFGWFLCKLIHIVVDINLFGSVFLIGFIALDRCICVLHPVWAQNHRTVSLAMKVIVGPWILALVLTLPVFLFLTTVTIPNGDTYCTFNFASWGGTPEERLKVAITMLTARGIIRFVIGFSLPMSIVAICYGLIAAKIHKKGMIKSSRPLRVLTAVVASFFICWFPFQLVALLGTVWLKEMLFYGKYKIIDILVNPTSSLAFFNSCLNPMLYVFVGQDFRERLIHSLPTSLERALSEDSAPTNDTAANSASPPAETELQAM

Values joined by “and” are separate entries in the source; they are usually repeats but may differ in a detail not shown here. Equal entries are not always repeated.
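Wherever Fold of Basal is given: compound tested at 1 µM final concentration.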
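Wherever GPCRome agonism screen response is given: fold over basal response of each receptor without drug.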

T2 sequence (O00421 whole entry): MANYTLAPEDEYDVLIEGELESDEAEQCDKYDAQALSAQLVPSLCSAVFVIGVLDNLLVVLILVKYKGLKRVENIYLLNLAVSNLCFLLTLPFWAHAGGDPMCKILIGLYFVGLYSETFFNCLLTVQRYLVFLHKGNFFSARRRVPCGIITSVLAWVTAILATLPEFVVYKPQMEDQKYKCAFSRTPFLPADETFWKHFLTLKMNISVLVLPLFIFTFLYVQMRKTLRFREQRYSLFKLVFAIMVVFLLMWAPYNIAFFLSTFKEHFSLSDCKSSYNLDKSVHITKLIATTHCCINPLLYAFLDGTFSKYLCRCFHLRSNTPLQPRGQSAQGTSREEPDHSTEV
T1 sequence (P51677 whole entry): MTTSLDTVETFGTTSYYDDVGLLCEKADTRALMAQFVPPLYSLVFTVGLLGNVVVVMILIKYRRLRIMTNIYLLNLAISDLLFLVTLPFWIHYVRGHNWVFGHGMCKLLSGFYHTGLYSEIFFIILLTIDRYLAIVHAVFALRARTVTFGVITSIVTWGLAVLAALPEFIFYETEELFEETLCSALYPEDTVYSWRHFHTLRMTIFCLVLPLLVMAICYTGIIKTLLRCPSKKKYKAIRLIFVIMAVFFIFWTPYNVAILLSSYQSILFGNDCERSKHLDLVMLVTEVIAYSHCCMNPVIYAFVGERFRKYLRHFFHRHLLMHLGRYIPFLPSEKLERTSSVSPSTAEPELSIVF
T3 sequence (P43116 whole entry): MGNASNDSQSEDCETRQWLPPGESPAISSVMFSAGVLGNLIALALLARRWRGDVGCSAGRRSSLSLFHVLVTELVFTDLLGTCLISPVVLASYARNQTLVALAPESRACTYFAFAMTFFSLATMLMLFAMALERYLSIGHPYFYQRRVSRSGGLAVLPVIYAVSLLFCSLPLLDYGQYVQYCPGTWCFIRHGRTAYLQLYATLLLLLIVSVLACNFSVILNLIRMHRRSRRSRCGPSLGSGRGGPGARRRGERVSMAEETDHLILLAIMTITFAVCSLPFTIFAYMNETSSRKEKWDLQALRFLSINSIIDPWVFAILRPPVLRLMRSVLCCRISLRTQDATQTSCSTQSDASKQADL

Consider `CCOc1cccc2cc(C(C)NCC3(O)CCCCC3)oc12` (stereo not shown) [O4LE6], for which the “Fold of Basal” value is 1.539 and 1.182 and 0.9454 and 0.9656 at 320 non-olfactory GPCRs [1]; 1.0982 and 0.8519 and 0.828 and 1.211 at 320 non-olfactory GPCRs [2]; 1.561 and 1.917 and 2.561 and 1.97 on 320 non-olfactory GPCRs [4]. Also, the “GPCRome agonism screen response” value on 320 non-olfactory GPCRs [3] was 0.6203 and 0.7336 and 1.113 and 1.811.

The values are drawn from publication PMC7044277 (Nature Communications, 2020).
